Where a name gives a salt, the structure may show the parent alone.
Experiments:
[1] = biological target: Beta-3 adrenergic receptor (Homo sapiens, UniProt P13945)
[2] = biological target: Beta-2 adrenergic receptor (Homo sapiens, UniProt P07550)
Sequence of Beta-2 adrenergic receptor (P07550 whole entry): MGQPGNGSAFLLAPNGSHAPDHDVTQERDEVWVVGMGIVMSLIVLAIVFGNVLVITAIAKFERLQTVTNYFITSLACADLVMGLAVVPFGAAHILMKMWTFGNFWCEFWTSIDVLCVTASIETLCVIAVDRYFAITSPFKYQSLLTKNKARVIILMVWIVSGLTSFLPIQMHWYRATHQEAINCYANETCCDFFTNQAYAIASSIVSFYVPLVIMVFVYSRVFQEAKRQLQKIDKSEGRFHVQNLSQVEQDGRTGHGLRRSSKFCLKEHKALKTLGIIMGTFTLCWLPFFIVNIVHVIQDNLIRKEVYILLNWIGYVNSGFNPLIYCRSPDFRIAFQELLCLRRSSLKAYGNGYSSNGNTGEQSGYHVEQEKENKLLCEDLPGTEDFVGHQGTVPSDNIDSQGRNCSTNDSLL

Sequence of Beta-3 adrenergic receptor (P13945 whole entry): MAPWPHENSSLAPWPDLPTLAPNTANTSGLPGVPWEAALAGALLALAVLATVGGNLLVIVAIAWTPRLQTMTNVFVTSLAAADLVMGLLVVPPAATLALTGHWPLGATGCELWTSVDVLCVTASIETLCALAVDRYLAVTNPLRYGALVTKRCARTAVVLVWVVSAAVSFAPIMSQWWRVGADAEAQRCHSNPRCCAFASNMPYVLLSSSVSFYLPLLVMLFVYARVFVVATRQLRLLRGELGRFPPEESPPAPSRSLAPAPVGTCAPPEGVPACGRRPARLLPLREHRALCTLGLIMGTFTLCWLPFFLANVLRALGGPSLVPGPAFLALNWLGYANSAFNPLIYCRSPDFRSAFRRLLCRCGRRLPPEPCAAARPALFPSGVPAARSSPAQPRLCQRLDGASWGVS

SMILES | Ki [1] | Ki [2]
CC(C)(C)NCC(O)c1cc(O)cc(O)c1 (racemic) [Terbutaline,(+/-)] | > 10000 nM | 
CC(C)(C)NCC(O)COc1cccc2[nH]c(=O)[nH]c12 (centres undefined) [4-[3-(tert-butylamino)-2-hydroxypropoxy]-2,3-dihydro-1H-1,3-benzodiazol-2-one hydrochloride] | 77.1 nM | 
CC(Cc1ccc(OCC(=O)O)cc1)NCC(O)c1cccc(Cl)c1 (centres undefined) [CAS_2437] |  | 9170 nM
CCc1ccccc1OC[C@@H](O)CN[C@H]1CCCc2ccccc21 [CAS_174689-39-5] | 122 nM | 61.9 nM
CNCC(O)c1ccc(O)c(O)c1 (centres undefined) [EPINEPHRINE] | > 10000 nM | 
CC(C)(C)NCC(O)c1cc(Br)no1 (centres undefined) [NSC_71149] | 3990 nM | 1290 nM
OCc1cc(C(O)CNCCCCCCOCCCCc2ccccc2)ccc1O (centres undefined) [salmeterol xinafoate] | 7180 nM | 
